In patent publication US11535643B2, “Macrolides with modified desosamine sugars and uses thereof” (President and Fellows of Harvard College, priority 2015, dated 2022):
In brackets after ≈: the same amount, converted by molar mass. Where two headings read alike, the source gives them in different places.

Experiments:
Format in all cases: cell-based
[1] = tested on: S. aureus; test: Broth dilution MIC determination (CLSI) against S. aureus strains; details: Staphylococcus aureus
Outline: (§1)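 Following CLSI procedures, broth dilution is used to find the MIC for each strain. Controls: azithromycin and solithromycin.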

[2] = tested on: S. pneumoniae; test: Broth dilution MIC determination (CLSI) against S. pneumoniae strains; details: Streptococcus pneumoniae
Outline: as §1

[3] = tested on: S. pyogenes; test: Broth dilution MIC determination (CLSI) against S. pyogenes strains; details: Streptococcus pyogenes
Outline: as §1

[4] = tested on: E. faecalis; test: Broth dilution MIC determination (CLSI) against E. faecalis strains; details: Enterococcus faecalis
Outline: as §1

[5] = tested on: E. coli; test: Broth dilution MIC determination (CLSI) against E. coli strains; details: Escherichia coli
Outline: as §1

[6] = tested on: A. baumannii; test: Broth dilution MIC determination (CLSI) against A. baumannii strains; details: Acinetobacter baumannii
Outline: as §1

[7] = tested on: K. pneumoniae; test: Broth dilution MIC determination (CLSI) against K. pneumoniae strains; details: Klebsiella pneumoniae
Outline: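 CLSI broth-dilution MICs across a panel including multidrug- and macrolide-resistant strains, with azithromycin and solithromycin as control compounds.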

[8] = tested on: P. aeruginosa; test: Broth dilution MIC determination (CLSI) against P. aeruginosa strains; details: Pseudomonas aeruginosa
Outline: as §1

[9] = tested on: H. influenzae; test: Broth dilution MIC determination (CLSI) against H. influenzae strains; details: Haemophilus influenzae
Text: Minimum inhibitory concentrations (MICs) for macrolides described herein have been determined for unique strains of S. aureus, S. pneumoniae, S. pyogenes, E. faecalis, E. coli, A. baumannii, K. pneumoniae, P. aeruginosa, and H. influenzae, including several multidrug-resistant strains, with a special focus on macrolide resistant mechanisms. Azithromycin and solithromycin were included as control compounds. CLSI standard procedures for broth dilution MIC determination were used. Data for exemplary compounds described herein is shown in Tables M1-M7 and in Tables N1-N4.

[10] = ATCC29213, ATCC29213, read-out: MIC S. aureus ATCC29213
[11] = MRSA / USA100, MRSA: USA100, read-out: MIC S. aureus MRSA: USA100
[12] = MRSA / USA300, MRSA: USA300, read-out: MIC S. aureus MRSA: USA300
[13] = USA600, USA600, GISA, read-out: MIC S. aureus USA600, GISA
[14] = read-out: MIC S. aureus erm A genotype
[15] = ATCC49619, ATCC49619, read-out: MIC S. pneumoniae ATCC49619
[16] = erm B + mef A genotype, read-out: MIC S. pneumoniae erm B + mef A genotype
[17] = erm B + tet(M, O) genotype, read-out: MIC S. pneumoniae erm B + tet(M, O) genotype
[18] = read-out: MIC S. pneumoniae mef A genotype, mef A genotype
[19] = read-out: MIC S. pneumoniae mef A genotype, mef A genotype, first of two such columns (c3)
[20] = ATCC19615, ATCC19615, read-out: MIC S. pyogenes ATCC19615
[21] = macrolide-resistant, read-out: MIC S. pyogenes macrolide-resistant
[22] = ATCC29212, ATCC29212, read-out: MIC E. faecalis ATCC29212
[23] = Vancomycin-resistant, read-out: MIC E. faecalis Vancomycin-resistant
[24] = ATCC25922, ATCC25922, read-out: MIC E. coli ATCC25922
[25] = read-out: MIC E. coli CTX-M-14, CTX-M-14
[26] = read-out: MIC E. coli NDM-1, NDM-1
[27] = read-out: MIC E. coli TEM-1, TEM-1
[28] = ATCC19606, ATCC19606, read-out: MIC A. baumannii ATCC19606
[29] = IMP-4, read-out: MIC A. baumannii IMP-4
[30] = chromosomal class C, read-out: MIC A. baumannii chromosomal class C
[31] = imipenem-resistant, read-out: MIC A. baumannii imipenem-resistant
[32] = ATCC10031, ATCC10031, read-out: MIC K. pneumoniae ATCC10031
[33] = KPC-2, read-out: MIC K. pneumoniae KPC-2
[34] = SHV-12, read-out: MIC K. pneumoniae SHV-12
[35] = TEM-10, read-out: MIC K. pneumoniae TEM-10
[36] = ATCC27853, read-out: MIC P. aeruginosa ATCC27853
[37] = read-out: MIC P. aeruginosa HPA101-1477
[38] = ATCC49247, ATCC49247, read-out: MIC H. influenzae ATCC49247
[39] = erythro > 4, azithro 1, read-out: MIC H. influenzae erythro > 4, azithro 1

Row | SMILES | MIC [1, 10] [µg/mL] | MIC [1, 11] [µg/mL] | MIC [1, 12] [µg/mL] | MIC [1, 13] [µg/mL] | MIC [1, 14] [µg/mL] | MIC [2, 15] [µg/mL] | MIC [2, 16] [µg/mL] | MIC [2, 17] [µg/mL] | MIC [2, 19] [µg/mL] | MIC [3, 20] [µg/mL] | MIC [3, 21] [µg/mL] | MIC [4, 22] [µg/mL] | MIC [4, 23] [µg/mL] | MIC [5, 24] [µg/mL] | MIC [5, 26] [µg/mL] | MIC [6, 28] [µg/mL] | MIC [6, 31] [µg/mL] | MIC [7, 32] [µg/mL] | MIC [7, 33] [µg/mL] | MIC [8, 36] [µg/mL] | other results
1 | CC[C@H]1OC(=O)[C@H](C)C(=O)[C@H](C)[C@@H](O[C@@H]2OC(CNC(=O)C(Cl)Cl)CC(N(C)C)C2O)[C@](C)(OC)C[C@@H](C)CN[C@H](C)[C@H]2N(CCCCn3cc(-c4cccc(N)c4)nn3)C(=O)O[C@]12C (stereo partly shown) [FSM-21842] | 4 (≈ 4.19 µM) | > 32 | > 32 | > 32 | > 32 | ≤ 0.0312 | 8 | ≤ 0.0312 | 0.125 (≈ 0.131 µM) | ≤ 0.0312 | 0.5 (≈ 0.524 µM) | 1 (≈ 1.05 µM) | > 32 | 16 (≈ 16.8 µM) | 32 (≈ 33.5 µM) | 32 (≈ 33.5 µM) | > 32 | 4 (≈ 4.19 µM) | > 32 | > 32 | MIC [2, 18]: 1 µg/mL (≈ 1.05 µM); MIC [5, 25]: > 32 µg/mL; MIC [5, 27]: 16 µg/mL (≈ 16.8 µM); MIC [6, 29]: > 32 µg/mL; MIC [6, 30]: > 32 µg/mL; MIC [7, 34]: > 32 µg/mL; MIC [7, 35]: 32 µg/mL (≈ 33.5 µM); MIC [8, 37]: > 32 µg/mL; MIC [9, 38]: 4 µg/mL (≈ 4.19 µM); MIC [9, 39]: 4 µg/mL (≈ 4.19 µM)
2 | CC[C@H]1OC(=O)[C@H](C)C(=O)[C@H](C)[C@@H](O[C@@H]2OC(CNC(=O)c3cc[nH]n3)CC(N(C)C)C2O)[C@](C)(OC)C[C@@H](C)CN[C@H](C)[C@H]2N(CCCCn3cc(-c4cccc(N)c4)nn3)C(=O)O[C@]12C (stereo partly shown) [FSM-21888] | 32 (≈ 34.1 µM) | > 32 | > 32 | > 32 | > 32 | < 0.0313 | 2 | < 0.0313 | 0.25 (≈ 0.267 µM) | < 0.0313 | 1 (≈ 1.07 µM) | 4 (≈ 4.27 µM) | > 32 | 32 (≈ 34.1 µM) | > 32 | > 32 | > 32 | 8 (≈ 8.54 µM) | > 32 | > 32 | MIC [9, 38]: 8 µg/mL (≈ 8.54 µM); MIC [9, 39]: 8 µg/mL (≈ 8.54 µM)
3 | CC[C@H]1OC(=O)[C@H](C)C(=O)[C@H](C)[C@@H](O[C@@H]2OC(CNC(=O)c3ccccn3)CC(N(C)C)C2O)[C@](C)(OC)C[C@@H](C)CN[C@H](C)[C@H]2N(CCCCn3cc(-c4cccc(N)c4)nn3)C(=O)O[C@]12C (stereo partly shown) [FSM-21887] | 8 (≈ 8.44 µM) | > 32 | > 32 | > 32 | > 32 | ≤ 0.0312 | 1 | ≤ 0.0312 | 0.0625 (≈ 0.0659 µM) | ≤ 0.0312 | 1 (≈ 1.05 µM) | 0.5 (≈ 0.527 µM) | > 32 | 16 (≈ 16.9 µM) | 32 (≈ 33.7 µM) | 32 (≈ 33.7 µM) | 32 (≈ 33.7 µM) | 8 (≈ 8.44 µM) | > 32 | > 32 | MIC [2, 18]: 0.5 µg/mL (≈ 0.527 µM); MIC [5, 25]: > 32 µg/mL; MIC [5, 27]: 16 µg/mL (≈ 16.9 µM); MIC [6, 29]: > 32 µg/mL; MIC [6, 30]: 32 µg/mL (≈ 33.7 µM); MIC [7, 34]: > 32 µg/mL; MIC [7, 35]: 16 µg/mL (≈ 16.9 µM); MIC [8, 37]: > 32 µg/mL; MIC [9, 38]: 2 µg/mL (≈ 2.11 µM); MIC [9, 39]: 2 µg/mL (≈ 2.11 µM)
